# Legend:
# ECHCG [1] = assay: greenhouse pre-emergence herbicidal test; format: in vivo, Echinocloa crus-galli; conditions: pre-emergence method, scale from 0 to 100
# Outline: (§1)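 Damage was rated on a 0 to 100 scale, where 0 is normal growth and 100 is no emergence or full destruction of aerial parts, after 2 to 4 weeks. Treatment was applied pre-emergence, right after sowing, as an aqueous suspension or emulsion via fine nozzles.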
# AMARE = assay: greenhouse post-emergence herbicidal test; format: in vivo, Amaranthus retroflexus; conditions: post-emergence method, scale from 0 to 100
# Text: (§2) The seeds of the test plants were sown separately for each species. For the post-emergence treatment, the test plants were first grown to a height of 3 to 15 cm, depending on the plant habit, and only then treated with the active ingredients which had been suspended or emulsified in water. For this purpose, the test plants were either sown directly and grown in the same containers, or they were first grown separately as seedlings and transplanted into the test containers a few days prior to treatment. Depending on the species, the plants were kept at 10-25° C. or 20-35° C., respectively. The test period extended over 2 to 4 weeks. During this time, the plants were tended, and their response to the individual treatments was evaluated. Evaluation was carried out using a scale from 0 to 100. 100 means no emergence of the plants, or complete destruction of at least the aerial moieties, and 0 means no damage, or normal course of growth. […] The plants used in the greenhouse experiments were of the following species: [table]
# ECHCG [2] = assay: greenhouse post-emergence herbicidal test; format: in vivo, Echinocloa crus-galli; conditions: post-emergence method, scale from 0 to 100
# Outline: (§3)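 Scoring 0 (no damage) to 100 (no emergence or total destruction of aerial parts), taken over a 2 to 4 week period after post-emergence treatment at 3 to 15 cm plant height. Compounds applied as aqueous suspension or emulsion; greenhouse temperature 10-25° C. or 20-35° C. depending on species.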
# APESV = assay: greenhouse pre-emergence herbicidal test; format: in vivo, Apera spica-venti; conditions: pre-emergence method, scale from 0 to 100
# Outline: as §1
# POLCO = assay: greenhouse post-emergence herbicidal test; format: in vivo, Polygonum convolvulus; conditions: post-emergence method, application rate 500 g/ha, scale from 0 to 100
# Text: as §2
# ALOMY = assay: greenhouse post-emergence herbicidal test; format: in vivo, Alopercurus myosuroides; conditions: post-emergence method, scale from 0 to 100
# Outline: as §3
# AVEFA = assay: greenhouse post-emergence herbicidal test; format: in vivo, Avena fatua; conditions: post-emergence method, scale from 0 to 100
# Text: as §2
smiles,measurement,setting,value
CSc1ncc(-c2ccccc2C(C)C)c(C(=O)O)n1 [example 103],herbicidal activity against ECHCG,ECHCG [1]; application rate 2000 g/ha,good (A good herbicidal activity is given at values of at least 70)
same,herbicidal activity against AMARE,AMARE; application rate 2000 g/ha,very good (a very good herbicidal activity is given at values of at least 85)
same,herbicidal activity against ECHCG,ECHCG [2]; application rate 2000 g/ha,very good (a very good herbicidal activity is given at values of at least 85)
COc1ccc(OC)c(-c2cnc(SC)nc2C(=O)O)c1 [example 108],herbicidal activity against ECHCG,ECHCG [1]; application rate 2000 g/ha,very good (a very good herbicidal activity is given at values of at least 85)
same,herbicidal activity against AMARE,AMARE; application rate 2000 g/ha,very good (a very good herbicidal activity is given at values of at least 85)
O=C(O)c1nc(C2CC2)ncc1-c1cc(Cl)ccc1Cl [example 143],herbicidal activity against APESV,APESV; application rate 500 g/ha,very good (a very good herbicidal activity is given at values of at least 85)
same,herbicidal activity against ECHCG,ECHCG [1]; application rate 500 g/ha,very good (a very good herbicidal activity is given at values of at least 85)
same,herbicidal activity against ECHCG,ECHCG [2]; application rate 500 g/ha,good (A good herbicidal activity is given at values of at least 70)
same,herbicidal activity against POLCO,POLCO,very good (a very good herbicidal activity is given at values of at least 85)
Cc1ccccc1-c1cnc(OC(C)C)nc1C(=O)O [example 72],herbicidal activity against AMARE,AMARE; application rate 500 g/ha,very good (a very good herbicidal activity is given at values of at least 85)
same,herbicidal activity against ECHCG,ECHCG [2]; application rate 500 g/ha,very good (a very good herbicidal activity is given at values of at least 85)
C=Cc1ncc(-c2ccccc2Cl)c(C(=O)OC)n1 [example 292],herbicidal activity against AMARE,AMARE; application rate 1000 g/ha,very good (a very good herbicidal activity is given at values of at least 85)
O=C(SCc1ccccc1)c1nc(C2CC2)ncc1-c1ccccc1Cl [example 280],herbicidal activity against APESV,APESV; application rate 500 g/ha,very good (a very good herbicidal activity is given at values of at least 85)
same,herbicidal activity against AMARE,AMARE; application rate 500 g/ha,very good (a very good herbicidal activity is given at values of at least 85)
CCc1ccccc1-c1cnc(C2CC2)nc1C(=O)O [example 174],herbicidal activity against APESV,APESV; application rate 500 g/ha,very good (a very good herbicidal activity is given at values of at least 85)
same,herbicidal activity against ECHCG,ECHCG [1]; application rate 500 g/ha,very good (a very good herbicidal activity is given at values of at least 85)
same,herbicidal activity against AMARE,AMARE; application rate 500 g/ha,very good (a very good herbicidal activity is given at values of at least 85)
same,herbicidal activity against ECHCG,ECHCG [2]; application rate 500 g/ha,very good (a very good herbicidal activity is given at values of at least 85)
Cc1ccccc1-c1cnc(C(C)C)nc1C(=O)O [example 33],herbicidal activity against APESV,APESV; application rate 500 g/ha,very good (a very good herbicidal activity is given at values of at least 85)
same,herbicidal activity against ECHCG,ECHCG [1]; application rate 500 g/ha,very good (a very good herbicidal activity is given at values of at least 85)
same,herbicidal activity against ECHCG,ECHCG [2]; application rate 500 g/ha,good (A good herbicidal activity is given at values of at least 70)
same,herbicidal activity against POLCO,POLCO,good (A good herbicidal activity is given at values of at least 70)
CCOc1ncc(-c2ccccc2C)c(C(=O)O)n1 [example 67],herbicidal activity against APESV,APESV; application rate 500 g/ha,very good (a very good herbicidal activity is given at values of at least 85)
same,herbicidal activity against ECHCG,ECHCG [1]; application rate 500 g/ha,good (A good herbicidal activity is given at values of at least 70)
same,herbicidal activity against ECHCG,ECHCG [2]; application rate 500 g/ha,good (A good herbicidal activity is given at values of at least 70)
same,herbicidal activity against POLCO,POLCO,very good (a very good herbicidal activity is given at values of at least 85)
CSc1ncc(-c2cc(C(F)(F)F)ccc2C)c(C(=O)O)n1 [example 93],herbicidal activity against AMARE,AMARE; application rate 2000 g/ha,very good (a very good herbicidal activity is given at values of at least 85)
COC(=O)c1nc(C2CC2)ncc1-c1cccc(Cl)c1Cl [example 211],herbicidal activity against ALOMY,ALOMY; application rate 1000 g/ha,very good (a very good herbicidal activity is given at values of at least 85)
same,herbicidal activity against AMARE,AMARE; application rate 1000 g/ha,very good (a very good herbicidal activity is given at values of at least 85)
Cc1ccccc1-c1cnc([S+](C)[O-])nc1C(=O)O (stereo not drawn) [example 126],herbicidal activity against AMARE,AMARE; application rate 2000 g/ha,very good (a very good herbicidal activity is given at values of at least 85)
Cc1cc(-c2cnc(C3CC3)nc2C(=O)O)c(C)cc1F [example 167],herbicidal activity against APESV,APESV; application rate 100 g/ha,very good (a very good herbicidal activity is given at values of at least 85)
same,herbicidal activity against ECHCG,ECHCG [1]; application rate 100 g/ha,very good (a very good herbicidal activity is given at values of at least 85)
same,herbicidal activity against AMARE,AMARE; application rate 100 g/ha,good (A good herbicidal activity is given at values of at least 70)
same,herbicidal activity against ECHCG,ECHCG [2]; application rate 100 g/ha,very good (a very good herbicidal activity is given at values of at least 85)
COC(=O)CSC(=O)c1nc(C2CC2)ncc1-c1ccccc1Cl [example 278],herbicidal activity against APESV,APESV; application rate 500 g/ha,very good (a very good herbicidal activity is given at values of at least 85)
same,herbicidal activity against ECHCG,ECHCG [1]; application rate 500 g/ha,very good (a very good herbicidal activity is given at values of at least 85)
same,herbicidal activity against POLCO,POLCO,very good (a very good herbicidal activity is given at values of at least 85)
CCc1ccccc1-c1cnc(C2CC2)nc1C(=O)OC [example 237],herbicidal activity against ECHCG,ECHCG [1]; application rate 1000 g/ha,very good (a very good herbicidal activity is given at values of at least 85)
same,herbicidal activity against AMARE,AMARE; application rate 1000 g/ha,very good (a very good herbicidal activity is given at values of at least 85)
same,herbicidal activity against ECHCG,ECHCG [2]; application rate 1000 g/ha,very good (a very good herbicidal activity is given at values of at least 85)
COC(=O)c1nc(C2CC2(F)F)ncc1-c1ccccc1Cl (stereo not drawn) [example 293],herbicidal activity against AMARE,AMARE; application rate 1000 g/ha,good (A good herbicidal activity is given at values of at least 70)
CSc1ncc(-c2ccc(C)cc2C)c(C(=O)O)n1 [example 97],herbicidal activity against AMARE,AMARE; application rate 2000 g/ha,very good (a very good herbicidal activity is given at values of at least 85)
same,herbicidal activity against ECHCG,ECHCG [2]; application rate 2000 g/ha,good (A good herbicidal activity is given at values of at least 70)
COc1ccc(C(F)(F)F)cc1-c1cnc(SC)nc1C(=O)O [example 107],herbicidal activity against AMARE,AMARE; application rate 2000 g/ha,very good (a very good herbicidal activity is given at values of at least 85)
COC(=O)c1nc(C2CC2)ncc1-c1ccccc1OC(F)F [example 242],herbicidal activity against ECHCG,ECHCG [1]; application rate 500 g/ha,very good (a very good herbicidal activity is given at values of at least 85)
same,herbicidal activity against AMARE,AMARE; application rate 500 g/ha,very good (a very good herbicidal activity is given at values of at least 85)
same,herbicidal activity against ECHCG,ECHCG [2]; application rate 500 g/ha,good (A good herbicidal activity is given at values of at least 70)
CSc1ncc(-c2cccc(C)c2C)c(C(=O)O)n1 [example 102],herbicidal activity against AMARE,AMARE; application rate 2000 g/ha,very good (a very good herbicidal activity is given at values of at least 85)
CSc1ncc(-c2cc(C)ccc2C)c(C(=O)O)n1 [example 92],herbicidal activity against APESV,APESV; application rate 2000 g/ha,good (A good herbicidal activity is given at values of at least 70)
same,herbicidal activity against ECHCG,ECHCG [1]; application rate 2000 g/ha,very good (a very good herbicidal activity is given at values of at least 85)
same,herbicidal activity against AMARE,AMARE; application rate 2000 g/ha,very good (a very good herbicidal activity is given at values of at least 85)
same,herbicidal activity against ECHCG,ECHCG [2]; application rate 2000 g/ha,good (A good herbicidal activity is given at values of at least 70)
COC(=O)c1nc(C2CC2)ncc1-c1c(Br)ccc(OC)c1Cl [example 212],herbicidal activity against AMARE,AMARE; application rate 500 g/ha,very good (a very good herbicidal activity is given at values of at least 85)
same,herbicidal activity against ECHCG,ECHCG [2]; application rate 500 g/ha,very good (a very good herbicidal activity is given at values of at least 85)
COC(=O)c1nc(C2CC2)ncc1-c1cc(Br)ccc1F [example 191],herbicidal activity against APESV,APESV; application rate 1000 g/ha,very good (a very good herbicidal activity is given at values of at least 85)
same,herbicidal activity against ECHCG,ECHCG [1]; application rate 1000 g/ha,very good (a very good herbicidal activity is given at values of at least 85)
same,herbicidal activity against ALOMY,ALOMY; application rate 1000 g/ha,good (A good herbicidal activity is given at values of at least 70)
same,herbicidal activity against AVEFA,AVEFA; application rate 1000 g/ha,good (A good herbicidal activity is given at values of at least 70)
same,herbicidal activity against ECHCG,ECHCG [2]; application rate 1000 g/ha,very good (a very good herbicidal activity is given at values of at least 85)
CCSc1ccccc1-c1cnc(SC)nc1C(=O)O [example 113],herbicidal activity against AMARE,AMARE; application rate 2000 g/ha,very good (a very good herbicidal activity is given at values of at least 85)
O=C(O)c1nc(C2CC2)ncc1-c1ccccc1I [example 311],herbicidal activity against APESV,APESV; application rate 500 g/ha,very good (a very good herbicidal activity is given at values of at least 85)
same,herbicidal activity against ECHCG,ECHCG [1]; application rate 500 g/ha,very good (a very good herbicidal activity is given at values of at least 85)
same,herbicidal activity against ALOMY,ALOMY; application rate 500 g/ha,very good (a very good herbicidal activity is given at values of at least 85)
same,herbicidal activity against AVEFA,AVEFA; application rate 500 g/ha,very good (a very good herbicidal activity is given at values of at least 85)
same,herbicidal activity against ECHCG,ECHCG [2]; application rate 500 g/ha,very good (a very good herbicidal activity is given at values of at least 85)
COC(=O)c1nc(C2CC2)ncc1-c1ccc(OC)cc1F [example 295],herbicidal activity against AMARE,AMARE; application rate 500 g/ha,good (A good herbicidal activity is given at values of at least 70)

# From patent publication US10420341B2, “Herbicidal phenylpyrimidines” (BASF SE, priority 2015, dated 2019)
